Assay results taken from patent publication US8865623B2, “Herbicidally active cyclic diones and derivatives thereof, processes for their preparation, compositions, and method of controlling weeds” (Syngenta Limited, priority 2009, dated 2014).

What was measured:
Format in all cases: in vivo
[1] = system: Echinochloa crus-galli (ECHCG); test: Pre-emergence herbicidal activity, glasshouse pot test; conditions: Echinochloa crus-galli, 312 h, Rate 250 g/ha, evaluated after 13 days, read-out: Pre-emergence activity ECHCG (100=total damage to plant; 0=no damage to plant)
Method: (§1) Seeds of a variety of test species were sown in standard soil in pots. After cultivation for one day (pre-emergence) or after 8 days cultivation (post-emergence) under controlled conditions in a glasshouse (at 24/16° C., day/night; 14 hours light; 65% humidity), the plants were sprayed with an aqueous spray solution derived from the formulation of the technical active ingredient in acetone/water (50:50) solution containing 0.5% Tween 20 (polyoxyethelyene sorbitan monolaurate, CAS RN 9005-64-5). The test plants were then grown in a glasshouse under controlled conditions in a glasshouse (at 24/16° C., day/night; 14 hours light; 65% humidity) and watered twice daily. After 13 days for pre and post-emergence, the test was evaluated (100=total damage to plant; 0=no damage to plant).
(§2) Lolium perenne (LOLPE), Alopecurus myosuroides (ALOMY), Echinochloa crus-galli (ECHCG), and Avena fatua (AVEFA).

Avena fatua (AVEFA) [2] = test: as above; conditions: Avena fatua, 312 h, Rate 250 g/ha, evaluated after 13 days, read-out: Pre-emergence activity AVEFA (100=total damage to plant; 0=no damage to plant)
Method: as §1, §2

[3] = system: Alopecurus myosuroides (ALOMY); test: as above; conditions: Alopecurus myosuroides, 312 h, Rate 250 g/ha, evaluated after 13 days, read-out: Pre-emergence activity ALOMY (100=total damage to plant; 0=no damage to plant)
Method: as §1, §2

Lolium perenne (LOLPE) [4] = test: as above; conditions: Lolium perenne, 312 h, Rate 250 g/ha, evaluated after 13 days, read-out: Pre-emergence activity LOLPE (100=total damage to plant; 0=no damage to plant)
Method: as §1, §2

[5] = system: Echinochloa crus-galli (ECHCG); test: Post-emergence herbicidal activity, glasshouse pot test; conditions: Echinochloa crus-galli, 312 h, rate 250 g/ha, evaluated after 13 days, read-out: Post-emergence activity ECHCG (100=total damage to plant; 0=no damage to plant)
Method: as §1, §2

Avena fatua (AVEFA) [6] = test: as above; conditions: Avena fatua, 312 h, rate 250 g/ha, evaluated after 13 days, read-out: Post-emergence activity AVEFA (100=total damage to plant; 0=no damage to plant)
Method: as §1, §2

[7] = system: Alopecurus myosuroides (ALOMY); test: as above; conditions: Alopecurus myosuroides, 312 h, rate 250 g/ha, evaluated after 13 days, read-out: Post-emergence activity ALOMY (100=total damage to plant; 0=no damage to plant)
Method: as §1, §2

Lolium perenne (LOLPE) [8] = test: as above; conditions: Lolium perenne, 312 h, rate 250 g/ha, evaluated after 13 days, read-out: Post-emergence activity LOLPE (100=total damage to plant; 0=no damage to plant)
Method: as §1, §2

Structure (SMILES) | pest or weed control at 250 g/ha ([1]; pre-emergence spray) [%] | pest or weed control at 250 g/ha (Avena fatua (AVEFA) [2]; pre-emergence spray) [%] | pest or weed control at 250 g/ha ([3]; pre-emergence spray) [%] | pest or weed control at 250 g/ha (Lolium perenne (LOLPE) [4]; pre-emergence spray) [%] | pest or weed control at 250 g/ha ([5]; glasshouse) [%] | pest or weed control at 250 g/ha (Avena fatua (AVEFA) [6]; glasshouse) [%] | pest or weed control at 250 g/ha ([7]; glasshouse) [%] | pest or weed control at 250 g/ha (Lolium perenne (LOLPE) [8]; glasshouse) [%] | pest or weed control at 250 g/ha ([1]; pre-emergence) [%] | pest or weed control at 250 g/ha (Avena fatua (AVEFA) [2]; pre-emergence) [%] | pest or weed control at 250 g/ha ([3]; pre-emergence) [%] | pest or weed control at 250 g/ha (Lolium perenne (LOLPE) [4]; pre-emergence) [%] | pest or weed control at 250 g/ha [5] [%] | pest or weed control at 250 g/ha (Avena fatua (AVEFA) [6]) [%] | pest or weed control at 250 g/ha [7] [%] | pest or weed control at 250 g/ha (Lolium perenne (LOLPE) [8]) [%]
CCc1ccc(Oc2ccc(F)cc2Cl)cc1C1=C(O)CCCC1=O [Example A-39] | 40 | 0 | 30 | 30 | 70 | 0 | 30 | 30 |  |  |  |  |  |  |  | 
CC1(C)OC(C)(C)C(O)=C(c2cc(Oc3ncc(Cl)cc3Cl)ccc2C2CC2)C1=O [Example A-364] |  |  |  |  |  |  |  |  | 100 | 60 | 70 | 90 | 100 | 90 | 100 | 90
CCc1ccc(Oc2ncccc2C(F)(F)F)cc1C1=C(O)C(C)(C)OC(C)(C)C1=O [Example A-154] | 20 | 0 | 0 | 10 | 60 | 10 | 20 | 20 |  |  |  |  |  |  |  | 
CCc1ccc(Oc2ccc(C(F)(F)F)cc2Cl)cc1C1=C(O)CC(C)(C)CC1=O [Example A-281] | 100 | 0 | 70 | 80 | 100 | 80 | 90 | 60 |  |  |  |  |  |  |  | 
CCc1ccc(Oc2ncc(C(F)(F)F)cc2F)cc1C1=C(O)CC2(CCOCC2)CC1=O [Example A-273] | 100 | 100 | 100 | 100 | 100 | 100 | 100 | 100 |  |  |  |  |  |  |  | 
CCc1ccc(Oc2cccc(F)c2F)cc1C1=C(O)C(C)(C)OC(C)(C)C1=O [Example A-16] | 100 | 0 | 0 | 0 | 80 | 0 | 0 | 20 |  |  |  |  |  |  |  | 
CCc1ccc(Oc2ccc(Br)cc2C#N)cc1C1=C(O)C(C)(C)OC(C)(C)C1=O [Example A-225] | 60 | 0 | 0 | 10 | 90 | 50 | 60 | 70 |  |  |  |  |  |  |  | 
CCc1ccc(Oc2ccc(Cl)c(F)c2)cc1C1=C(O)[C@@H]2CC[C@](C)(C1=O)C2(C)C (single isomer, unassigned) [Example A-93] | 100 | 60 | 60 | 90 | 50 | 20 | 60 | 20 |  |  |  |  |  |  |  | 
CCc1ccc(Oc2ccc(C(F)(F)F)cn2)cc1C1=C(O)C(C)(C)OC(C)(C)C1=O [Example A-34] | 100 | 100 | 100 | 100 | 100 | 100 | 100 | 100 |  |  |  |  |  |  |  | 
CCc1ccc(Oc2ccc(F)cc2F)cc1C1=C(O)CCCC1=O [Example A-69] | 80 | 0 | 20 | 30 | 60 | 0 | 10 | 20 |  |  |  |  |  |  |  | 
CCc1ccc(Oc2ccc(Cl)cc2C#N)cc1C1=C(O)C(C)(C)OC(C)(C)C1=O [Example A-224] | 20 | 10 | 20 | 30 | 70 | 50 | 50 | 70 |  |  |  |  |  |  |  | 
CCc1ccc(Oc2nc3ccccc3o2)cc1C1=C(O)C(C)(C)OC(C)(C)C1=O [Example A-118] | 100 | 80 | 100 | 100 | 100 | 80 | 90 | 100 |  |  |  |  |  |  |  | 
CCc1ccc(Oc2ccc(C#N)c(F)c2)cc1C1=C(O)C(C)(C)OC(C)(C)C1=O [Example A-116] | 20 | 0 | 0 | 20 | 100 | 30 | 80 | 40 |  |  |  |  |  |  |  | 
CCc1ccc(Oc2nc3ccc(C)cc3s2)cc1C1=C(O)C(C)(C)OC(C)(C)C1=O [Example A-168] | 70 | 10 | 60 | 80 | 90 | 20 | 90 | 90 |  |  |  |  |  |  |  | 
CCc1ccc(Oc2nc3ccccc3s2)cc1C1=C(O)[C@H]2CC[C@H](C2)C1=O [Example A-337] | 100 | 70 | 90 | 100 | 100 | 90 | 90 | 90 |  |  |  |  |  |  |  | 
CCc1ccc(Oc2nc3ccc(F)cc3nc2Cl)cc1C1=C(O)C(C)(C)OC(C)(C)C1=O [Example A-173] | 50 | 0 | 0 | 10 | 20 | 10 | 0 | 10 |  |  |  |  |  |  |  | 
CCc1ccc(Oc2ncnc3sccc23)cc1C1=C(O)C(C)(C)OC(C)(C)C1=O [Example A-126] | 10 | 0 | 0 | 0 | 50 | 20 | 10 | 10 |  |  |  |  |  |  |  | 
CCc1ccc(Oc2ccc(Br)cc2Cl)cc1C1=C(O)C(C)(C)OC(C)(C)C1=O [Example A-9] | 100 | 30 | 60 | 80 | 100 | 100 | 90 | 80 |  |  |  |  |  |  |  | 
